The values below come from article PMC12285154, “New insights into the 17β-hydroxysteroid dehydrogenase type 10 and amyloid-β 42 derived cytotoxicity relevant to Alzheimer’s disease” (Alzheimer's Research & Therapy, 2025).

Assay [1] deals with T1, 17β-hydroxysteroid dehydrogenase type 10 (HSD10) (Homo sapiens, UniProt Q99714).
T1 construct: gene HSD17B10; HSD10 overexpressed in HEK293 cells
T1 sequence (Q99714 2-261): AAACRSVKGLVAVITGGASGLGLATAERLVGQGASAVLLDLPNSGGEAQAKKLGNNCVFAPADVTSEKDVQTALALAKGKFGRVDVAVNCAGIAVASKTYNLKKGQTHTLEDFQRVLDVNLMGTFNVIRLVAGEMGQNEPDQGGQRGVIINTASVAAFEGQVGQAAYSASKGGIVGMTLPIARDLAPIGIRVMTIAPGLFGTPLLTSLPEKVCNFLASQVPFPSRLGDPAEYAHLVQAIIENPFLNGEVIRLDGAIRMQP
In words: (-)-CHANA fluorogenic probe turnover in HSD10-overexpressing HEK293 cells. The assay is classed as cell-based.

Assay [2] has as its target amyloid-β 42 Aβ1-42 (Homo sapiens) (UniProt P05067). The conditions noted are these: cited from earlier work.

Sequence of amyloid-β 42 Aβ1-42 (Homo sapiens) (P05067 1-42): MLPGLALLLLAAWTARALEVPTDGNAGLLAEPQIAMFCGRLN

On to `COc1ccc2nc(NC(=O)c3ccc(O)c(Cl)c3)sc2c1` [compound 34, inhibitor 34], for which, in assay [1], the IC50 is 4260 nM.

With HSD10 (from UniProt Q99714), the Kd in assay [2] is 55.8 nM.

Molecule `O=C(C(c1ccccc1)n1cnc2[nH]ncc2c1=S)N1CCCCCC1` (stereo not drawn) [AG18051] gave an IC50 in assay [1] of 190 nM.

In general, IC50 refers to the midpoint of a concentration-inhibition curve. The low end stands for greater potency, the high end for weaker potency. As a reminder, the Kd is the equilibrium constant for the complex coming apart.
